Laboratory results taken from PubChem BioAssay AID226 (DTP/NCI, 2004).
Where “and” joins values, the source holds several entries; their conditions need not be identical. Equal values may be shown once. Inconclusive results and toxic doses are left out.

Tested on: B6C3F1 mice, intracerebral ependymoblastoma, median survival T/C
Assay: NCI In Vivo Anticancer Drug Screen. Data for tumor model Ependymoblastoma (intracerebral) in B6C3F1 mice
Details: endpoint: median survival time, higher = longer survival
Method: The antitumor activity of compounds was measured in mice bearing transplantable tumors. Survival or tumor size were measured and the results are expressed as the measurement made in the treated group (T) divided by the measurement made in the vehicle treated control group (C). The tumor model used in this assay is Ependymoblastoma (intracerebral) in B6C3F1 mice

[1] = dose: 32.0 mg/kg/injection, schedule: Q01DX005 (ip), vehicle: Klucel (hydroxypropylcellulose) (HPC)
[2] = dose: 64.0 mg/kg/injection, schedule: Q01DX005 (ip), vehicle: Klucel (hydroxypropylcellulose) (HPC)
[3] = dose: 128.0 mg/kg/injection, schedule: Q01DX005 (ip), vehicle: Klucel (hydroxypropylcellulose) (HPC)
[4] = dose: 256.0 mg/kg/injection, schedule: Q01DX005 (ip), vehicle: Klucel (hydroxypropylcellulose) (HPC)
[5] = dose: 512.0 mg/kg/injection, schedule: Q01DX005 (ip), vehicle: Klucel (hydroxypropylcellulose) (HPC)
[6] = dose: 1024.0 mg/kg/injection, schedule: Q01DX005 (ip), vehicle: Klucel (hydroxypropylcellulose) (HPC)
[7] = dose: 50.0 mg/kg/injection, schedule: Q01DX005 (ip), vehicle: suspension in saline
[8] = dose: 100.0 mg/kg/injection, schedule: Q01DX005 (ip), vehicle: suspension in saline
[9] = dose: 200.0 mg/kg/injection, schedule: Q01DX005 (ip), vehicle: suspension in saline
[10] = dose: 12.5 mg/kg/injection, schedule: Q01DX005 (ip), vehicle: saline with Tween-80
[11] = dose: 25.0 mg/kg/injection, schedule: Q01DX005 (ip), vehicle: saline with Tween-80
[12] = dose: 8.0 mg/kg/injection, schedule: Q01DX005 (ip), vehicle: Klucel (hydroxypropylcellulose) (HPC)
[13] = dose: 16.0 mg/kg/injection, schedule: Q01DX005 (ip), vehicle: Klucel (hydroxypropylcellulose) (HPC)

NC(=O)c1cn(C2OC(CO)C(O)C2O)c2ncnc(N)c12 (centres undefined)
T/C (dose: 0.38 mg/kg/injection, schedule: Q01DX005 (ip), vehicle: Klucel (hydroxypropylcellulose) (HPC)): 92 % of control | T/C (dose: 0.75 mg/kg/injection, schedule: Q01DX005 (ip), vehicle: Klucel (hydroxypropylcellulose) (HPC)): 90 % of control | T/C (dose: 1.5 mg/kg/injection, schedule: Q01DX005 (ip), vehicle: Klucel (hydroxypropylcellulose) (HPC)): 103 % of control | T/C (dose: 3.0 mg/kg/injection, schedule: Q01DX005 (ip), vehicle: Klucel (hydroxypropylcellulose) (HPC)): 94 % of control

CC(C)=CCC1=C(O)c2ccccc2C(=O)C1=O
T/C [1]: 91 % of control | T/C [2]: 100 % of control | T/C [3]: 96 % of control

Nc1ncnc2c1ncn2C1OC(CO)C(O)C1O (centres undefined)
T/C [2]: 101 % of control | T/C [3]: 92 % of control | T/C [4]: 96 % of control | T/C [5]: 94 % of control | T/C [6]: 98 % of control

OCC1OC(n2cnc3c2NC=NC[C@H]3O)CC1O (some centres undefined)
T/C (dose: 0.12 mg/kg/injection, schedule: Q#ADX018 (ip), vehicle: saline): 102 % of control | T/C (dose: 0.25 mg/kg/injection, schedule: Q01DX005 (ip), vehicle: saline): 108 % of control and 113 % of control | T/C (dose: 0.25 mg/kg/injection, schedule: Q#ADX018 (ip), vehicle: saline): 103 % of control | T/C (dose: 0.5 mg/kg/injection, schedule: Q01DX005 (ip), vehicle: saline): 100 % of control and 103 % of control | T/C (dose: 0.5 mg/kg/injection, schedule: Q01DX009 (ip), vehicle: saline): 103 % of control and 116 % of control | T/C (dose: 0.5 mg/kg/injection, schedule: Q#A X010 (ip), vehicle: saline): 122 % of control | T/C (dose: 1.0 mg/kg/injection, schedule: Q01DX009 (ip), vehicle: saline): 88 % of control | T/C (dose: 2.0 mg/kg/injection, schedule: Q01DX009 (ip), vehicle: saline): 91 % of control

CSc1nc(N)nc2c1ncn2C1OC(CO)C(O)C1O (centres undefined)
T/C [7]: 108 % of control | T/C [8]: 109 % of control | T/C [9]: 100 % of control | T/C (dose: 400.0 mg/kg/injection, schedule: Q01DX005 (ip), vehicle: suspension in saline): 96 % of control

CCC(C)Sc1nc(N)nc2c1ncn2C1OC(CO)C(O)C1O (centres undefined)
T/C (dose: 37.5 mg/kg/injection, schedule: Q01DX005 (ip), vehicle: Klucel (hydroxypropylcellulose) (HPC)): 97 % of control and 119 % of control | T/C (dose: 75.0 mg/kg/injection, schedule: Q01DX005 (ip), vehicle: Klucel (hydroxypropylcellulose) (HPC)): 113 % of control and 116 % of control | T/C (dose: 150.0 mg/kg/injection, schedule: Q01DX005 (ip), vehicle: Klucel (hydroxypropylcellulose) (HPC)): 115 % of control | T/C (dose: 300.0 mg/kg/injection, schedule: Q01DX005 (ip), vehicle: Klucel (hydroxypropylcellulose) (HPC)): 95 % of control and 113 % of control

O=[n+]1c2ccccc2n([O-])c2cc(Cl)ccc21
T/C [10]: 100 % of control | T/C [11]: 106 % of control | T/C (dose: 50.0 mg/kg/injection, schedule: Q01DX005 (ip), vehicle: saline with Tween-80): 95 % of control | T/C (dose: 100.0 mg/kg/injection, schedule: Q01DX005 (ip), vehicle: saline with Tween-80): 89 % of control

Cc1c[nH]c(=O)[nH]c1=O
T/C [2]: 104 % of control | T/C [3]: 92 % of control | T/C [4]: 99 % of control | T/C [5]: 95 % of control | T/C [6]: 95 % of control

C#C[C@]1(O)CC[C@H]2[C@@H]3CCc4cc(O)ccc4[C@H]3CC[C@@]21C
T/C [12]: 97 % of control and 103 % of control | T/C [13]: 98 % of control and 109 % of control | T/C [1]: 100 % of control and 106 % of control | T/C [2]: 97 % of control and 119 % of control | T/C [3]: 104 % of control and 107 % of control | T/C [4]: 104 % of control and 124 % of control | T/C [5]: 109 % of control and 111 % of control

Nc1nc(SCc2ccccc2F)c2ncn(C3OC(CO)C(O)C3O)c2n1 (centres undefined)
T/C (dose: 0.78 mg/kg/injection, schedule: Q01DX005 (ip), vehicle: saline with Tween-80): 101 % of control and 103 % of control | T/C (dose: 1.56 mg/kg/injection, schedule: Q01DX005 (ip), vehicle: saline with Tween-80): 100 % of control and 109 % of control | T/C (dose: 3.12 mg/kg/injection, schedule: Q01DX005 (ip), vehicle: saline with Tween-80): 93 % of control and 96 % of control | T/C (dose: 6.25 mg/kg/injection, schedule: Q01DX005 (ip), vehicle: saline with Tween-80): 91 % of control and 104 % of control and 120 % of control | T/C [10]: 99 % of control | T/C [11]: 122 % of control

CN(C)C=O
T/C (dose: 50.0 mg/kg/injection, schedule: Q01DX005 (ip), vehicle: saline): 92 % of control and 112 % of control | T/C (dose: 100.0 mg/kg/injection, schedule: Q01DX005 (ip), vehicle: saline): 96 % of control and 98 % of control and 115 % of control | T/C (dose: 200.0 mg/kg/injection, schedule: Q01DX005 (ip), vehicle: saline): 94 % of control and 99 % of control and 109 % of control | T/C (dose: 400.0 mg/kg/injection, schedule: Q01DX005 (ip), vehicle: saline): 94 % of control and 99 % of control and 113 % of control | T/C (dose: 800.0 mg/kg/injection, schedule: Q01DX005 (ip), vehicle: saline): 93 % of control and 102 % of control and 105 % of control | T/C (dose: 1600.0 mg/kg/injection, schedule: Q01DX005 (ip), vehicle: saline): 93 % of control | T/C (dose: 2400.0 mg/kg/injection, schedule: Q01DX005 (ip), vehicle: saline): 97 % of control

CN1c2c(nc(N)[nH]c2=O)NCC1CCNc1ccc(C(=O)NC(CCC(=O)O)C(=O)O)cc1 (centres undefined)
T/C (dose: 50.0 mg/kg/injection, schedule: Q#ADX018 (ip), vehicle: saline): 114 % of control | T/C (dose: 100.0 mg/kg/injection, schedule: Q01DX009 (ip), vehicle: saline): 111 % of control and 114 % of control | T/C (dose: 100.0 mg/kg/injection, schedule: Q12HX018 (ip), vehicle: saline): 122 % of control | T/C (dose: 100.0 mg/kg/injection, schedule: Q#A X018 (ip), vehicle: saline): 195 % of control | T/C (dose: 100.0 mg/kg/injection, schedule: Q#ADX018 (ip), vehicle: saline): 114 % of control | T/C (dose: 200.0 mg/kg/injection, schedule: Q01DX009 (ip), vehicle: saline): 105 % of control and 115 % of control | T/C (dose: 200.0 mg/kg/injection, schedule: Q#A X018 (ip), vehicle: saline): 216 % of control | T/C (dose: 200.0 mg/kg/injection, schedule: Q#ADX018 (ip), vehicle: saline): 119 % of control | T/C (dose: 400.0 mg/kg/injection, schedule: Q01DX009 (ip), vehicle: saline): 109 % of control | T/C (dose: 400.0 mg/kg/injection, schedule: Q#A X018 (ip), vehicle: saline): 190 % of control | T/C (dose: 800.0 mg/kg/injection, schedule: Q01DX009 (ip), vehicle: saline): 121 % of control and 122 % of control | T/C (dose: 1600.0 mg/kg/injection, schedule: Q01DX009 (ip), vehicle: saline): 120 % of control

COc1ccc(C(=O)/C(Br)=C/C(=O)O)cc1
T/C (dose: 10.0 mg/kg/injection, schedule: Q01DX005 (ip), vehicle: saline): 92 % of control and 104 % of control | T/C (dose: 20.0 mg/kg/injection, schedule: Q01DX005 (ip), vehicle: saline): 96 % of control and 103 % of control | T/C (dose: 40.0 mg/kg/injection, schedule: Q01DX005 (ip), vehicle: saline): 94 % of control and 104 % of control

NC(=S)c1cn(C2OC(CO)C(O)C2O)c2ncnc(N)c12 (centres undefined)
T/C (dose: 1.88 mg/kg/injection, schedule: Q01DX005 (ip), vehicle: suspension in saline): 94 % of control | T/C (dose: 3.75 mg/kg/injection, schedule: Q01DX005 (ip), vehicle: suspension in saline): 97 % of control | T/C (dose: 7.5 mg/kg/injection, schedule: Q01DX005 (ip), vehicle: suspension in saline): 108 % of control

CC(=O)O[C@]1(C(C)=O)CC[C@H]2[C@@H]3C[C@H](C)C4=CC(=O)CC[C@]4(C)[C@H]3CC[C@@]21C
T/C [12]: 96 % of control and 104 % of control | T/C [13]: 101 % of control and 122 % of control | T/C [1]: 101 % of control and 112 % of control | T/C [2]: 92 % of control and 97 % of control | T/C [3]: 95 % of control and 98 % of control | T/C [4]: 94 % of control and 97 % of control

CCOC(=O)CC(SP(=S)(OC)OC)C(=O)OCC (centres undefined)
T/C (dose: 25.0 mg/kg/injection, schedule: Q01DX005 (ip), vehicle: suspension in saline): 100 % of control | T/C [7]: 124 % of control | T/C [8]: 101 % of control | T/C [9]: 105 % of control

CNc1nc(N(C)C)nc(N(C)C)n1
T/C (dose: 16.0 mg/kg/injection, schedule: Q01DX005 (ip), vehicle: saline): 98 % of control and 111 % of control | T/C (dose: 32.0 mg/kg/injection, schedule: Q01DX005 (ip), vehicle: saline): 101 % of control | T/C (dose: 64.0 mg/kg/injection, schedule: Q01DX005 (ip), vehicle: saline): 104 % of control and 115 % of control | T/C (dose: 128.0 mg/kg/injection, schedule: Q01DX005 (ip), vehicle: saline): 96 % of control and 111 % of control
